Read-outs that look alike come from different tables or passages of the source.
What was measured:
Type in all cases: in vivo
[1] = tested on: Formosan subterranean termites (Coptotermes formosanus); experiment: Thin plate bioassay; conditions: 0.05% solution
Description: (§1) A laboratory study was conducted, using recently collected R. flavipes and C. formosanus. Thin plate bioassays were assembled using 0.6 cm glass and 0.6 cm clear Lexan. A sheet of 20.3×66 cm glass was used for the bottom. Two pieces of 2.5×61 cm glass were laid along the long edges, and two pieces of […]. Each arena had 450 g of screened sand evenly applied, and moistened with deionized water to help hold it in place during construction of the arenas. Fisher brand tongue depressors, cut in half, were used as a food source for the termites, and placed at one end of the arena. Prior to adding the Lexan top sheets, 0.6 cm holes were drilled at one end, and three 0.6 cm treatment apertures were drilled equally spaced apart at the center line. One 8 cm Petri dish with a 0.6 cm hole drilled in the bottom was lined up with the hole at the end of the top sheet, and glued down. Glue was allowed to dry for 72 hours. Large binder clips were used to hold the arena together.
(§2) Termiticide solutions were prepared as follows: Fipronil 0.017%; Fipronil 0.03%; Imidacloprid 0.05%; Imi-Fip 0.067% (Imidacloprid 0.05%, Fipronil 0.017%); and Untreated Control (water only). Ten ml of each finished solution of termiticide were applied to each arena: each of the three treatment apertures received 3.3 ml of termiticide. The treatments were allowed to dry for 24 hours, and the treatment apertures were covered with a 2.5×7.5 cm microscope slide. In each Petri dish, 500 worker and 15 soldier termites were added, using either R. flavipes or C. formosanus. Each treatment was replicated four times. Data regarding distance tunneled and mortality were collected daily for eight days. Data was analyzed using Analysis of Variance (ANOVA) and means were separated by Tukey's HSD (Honest Significant Difference test (IBM SPSS v 19).

[2] = tested on: Eastern subterranean termites (Reticulitermes flavipes); experiment: Thin plate bioassay; conditions: 0.05% solution
Description: as §1, §2

[3] = tested on: Formosan Coptotermes formosanus termites; experiment: Transfer effects among nestmates (donor/recipient Petri dish arenas); conditions: donors treated with 50 ppm; for mortality at 50 ppm: Coptotermes formosanus
Description: (§3) The purpose of this study was to determine whether there is transference of […] among nestmates of subterranean termites. Arenas for this study consisted of a 15 cm Petri dish. […] Donor and untreated marked control termites were marked using RustOleum® Marking Paint, using methodology described by Keefer et al. 2012.
(§4) Two untreated soldier termites for each species were added to each arena to simulate colony dynamics. Post-treatment observations for mortality were made at 4 h and then daily through day 7.

[4] = tested on: Eastern Subterranean Reticulitermes flavipes termites; experiment: as above; conditions: donors treated with 50 ppm; for mortality at 50 ppm: Reticulitermes flavipes
Description: as §3, §4

[5] = 4 h, by treatment (all ratios), 4 h, read-out: Mean % mortality of donors and recipients
[6] = 4 h, donor:recipient ratio 1:19, 4 h, read-out: Mean total % mortality of donors and recipients
[7] = 4 h, donor:recipient ratio 5:15, 4 h, read-out: Mean total % mortality of donors and recipients
[8] = 4 h, donor:recipient ratio 10:10, 4 h, read-out: Mean total % mortality of donors and recipients
[9] = 4 h, donor:recipient ratio 15:5, 4 h, read-out: Mean total % mortality of donors and recipients
[10] = 24 h, by treatment (all ratios), 1 d, read-out: Mean % mortality of donors and recipients
[11] = 24 h, donor:recipient ratio 1:19, 1 d, read-out: Mean total % mortality of donors and recipients
[12] = 24 h, donor:recipient ratio 5:15, 1 d, read-out: Mean total % mortality of donors and recipients
[13] = 24 h, donor:recipient ratio 10:10, 1 d, read-out: Mean total % mortality of donors and recipients
[14] = 24 h, donor:recipient ratio 15:5, 1 d, read-out: Mean total % mortality of donors and recipients
[15] = 48 h, by treatment (all ratios), 2 d, read-out: Mean % mortality of donors and recipients
[16] = 48 h, donor:recipient ratio 1:19, 2 d, read-out: Mean total % mortality of donors and recipients
[17] = 48 h, donor:recipient ratio 5:15, 2 d, read-out: Mean total % mortality of donors and recipients
[18] = 48 h, donor:recipient ratio 10:10, 2 d, read-out: Mean total % mortality of donors and recipients
[19] = 48 h, donor:recipient ratio 15:5, 2 d, read-out: Mean total % mortality of donors and recipients
[20] = 72 h, by treatment (all ratios), 3 d, read-out: Mean % mortality of donors and recipients
[21] = 72 h, donor:recipient ratio 1:19, 3 d, read-out: Mean total % mortality of donors and recipients
[22] = 72 h, donor:recipient ratio 5:15, 3 d, read-out: Mean total % mortality of donors and recipients
[23] = 72 h, donor:recipient ratio 10:10, 3 d, read-out: Mean total % mortality of donors and recipients
[24] = 72 h, donor:recipient ratio 15:5, 3 d, read-out: Mean total % mortality of donors and recipients
[25] = 96 h, by treatment (all ratios), 4 d, read-out: Mean % mortality of donors and recipients
[26] = 96 h, donor:recipient ratio 1:19, 4 d, read-out: Mean total % mortality of donors and recipients
[27] = 96 h, donor:recipient ratio 5:15, 4 d, read-out: Mean total % mortality of donors and recipients
[28] = 96 h, donor:recipient ratio 10:10, 4 d, read-out: Mean total % mortality of donors and recipients
[29] = 96 h, donor:recipient ratio 15:5, 4 d, read-out: Mean total % mortality of donors and recipients
[30] = 120 h, by treatment (all ratios), 5 d, read-out: Mean % mortality of donors and recipients
[31] = 120 h, donor:recipient ratio 1:19, 5 d, read-out: Mean total % mortality of donors and recipients
[32] = 120 h, donor:recipient ratio 5:15, 5 d, read-out: Mean total % mortality of donors and recipients
[33] = 120 h, donor:recipient ratio 10:10, 5 d, read-out: Mean total % mortality of donors and recipients
[34] = 120 h, donor:recipient ratio 15:5, 5 d, read-out: Mean total % mortality of donors and recipients
[35] = 144 h, by treatment (all ratios), 6 d, read-out: Mean % mortality of donors and recipients
[36] = 144 h, donor:recipient ratio 1:19, 6 d, read-out: Mean total % mortality of donors and recipients
[37] = 144 h, donor:recipient ratio 5:15, 6 d, read-out: Mean total % mortality of donors and recipients
[38] = 144 h, donor:recipient ratio 10:10, 6 d, read-out: Mean total % mortality of donors and recipients
[39] = 144 h, donor:recipient ratio 15:5, 6 d, read-out: Mean total % mortality of donors and recipients
[40] = 168 h, by treatment (all ratios), 7 d, read-out: Mean % mortality of donors and recipients
[41] = 168 h, donor:recipient ratio 1:19, 7 d, read-out: Mean total % mortality of donors and recipients
[42] = 168 h, donor:recipient ratio 5:15, 7 d, read-out: Mean total % mortality of donors and recipients
[43] = 168 h, donor:recipient ratio 10:10, 7 d, read-out: Mean total % mortality of donors and recipients
[44] = 168 h, donor:recipient ratio 15:5, 7 d, read-out: Mean total % mortality of donors and recipients

O=[N+]([O-])NC1=NCCN1Cc1ccc(Cl)nc1 [Imidacloprid, N-[1-[(6-Chloro-3-pyridyl)methyl]-4,5-dihydroimidazol-2-yl]nitramide]
Mean % mortality ([1]; 1 day post-treatment): 0.80 a % | Mean % mortality ([1]; 2 days post-treatment): 5.30 b % | Mean % mortality ([1]; 3 days post-treatment): 23.25 a % | Mean % mortality ([1]; 4 days post-treatment): 30.00 a % | Mean % mortality ([1]; 5 days post-treatment): 55.00 a % | Mean % mortality ([1]; 6 days post-treatment): 88.75 b % | Mean % mortality ([1]; 7 days post-treatment): 100.00 a % | Mean % mortality ([1]; 8 days post-treatment): 100.00a % | Mean % mortality ([2]; 1 day post-treatment): 6.35 a % | Mean % mortality ([2]; 2 days post-treatment): 12.00 b % | Mean % mortality ([2]; 3 days post-treatment): 75.00 a % | Mean % mortality ([2]; 4 days post-treatment): 80.00 a % | Mean % mortality ([2]; 5 days post-treatment): 80.00 c % | Mean % mortality ([2]; 6 days post-treatment): 100.00 a % | Mean % mortality ([2]; 7 days post-treatment): 100.00 a % | Mean % mortality ([2]; 8 days post-treatment): 100.00 a % | mortality at 50 ppm [3, 5]: 9% | mortality at 50 ppm [3, 6]: 0% | mortality at 50 ppm [3, 7]: 3.75% | mortality at 50 ppm [3, 8]: 17.5% | mortality at 50 ppm [3, 9]: 17.5% | mortality at 50 ppm [3, 10]: 32.5% | mortality at 50 ppm [3, 11]: 1.25% | mortality at 50 ppm [3, 12]: 12.5% | mortality at 50 ppm [3, 13]: 85% | mortality at 50 ppm [3, 14]: 31.2% | mortality at 50 ppm [3, 15]: 52.5% | mortality at 50 ppm [3, 16]: 5% | mortality at 50 ppm [3, 17]: 22.5% | mortality at 50 ppm [3, 18]: 96.2% | mortality at 50 ppm [3, 19]: 86.2% | mortality at 50 ppm [3, 20]: 67.2% | mortality at 50 ppm [3, 21]: 33.8% | mortality at 50 ppm [3, 22]: 37.5% | mortality at 50 ppm [3, 23]: 100% | mortality at 50 ppm [3, 24]: 100% | mortality at 50 ppm [3, 25]: 76.2% | mortality at 50 ppm [3, 26]: 72.5% | mortality at 50 ppm [3, 27]: 55% | mortality at 50 ppm [3, 28]: 100% | mortality at 50 ppm [3, 29]: 100% | mortality at 50 ppm [3, 30]: 87.5% | mortality at 50 ppm [3, 31]: 82.5% | mortality at 50 ppm [3, 32]: 67.5% | mortality at 50 ppm [3, 33]: 100% | mortality at 50 ppm [3, 34]: 100% | mortality at 50 ppm [3, 35]: 96.2% | mortality at 50 ppm [3, 36]: 93.8% | mortality at 50 ppm [3, 37]: 91.2% | mortality at 50 ppm [3, 38]: 100% | mortality at 50 ppm [3, 39]: 100% | mortality at 50 ppm [3, 40]: 97% | mortality at 50 ppm [3, 41]: 95% | mortality at 50 ppm [3, 42]: 96.2% | mortality at 50 ppm [3, 43]: 100% | mortality at 50 ppm [3, 44]: 100% | Mean % mortality of donors and recipients ([3]; by treatment (all ratios), 4 h): 9.68 b % | Mean % mortality of donors and recipients ([3]; by treatment (all ratios), 7 d): 97.81 a % | mortality at 50 ppm [4, 5]: 27% | mortality at 50 ppm [4, 6]: 10% | mortality at 50 ppm [4, 7]: 21.2% | mortality at 50 ppm [4, 8]: 43.8% | mortality at 50 ppm [4, 9]: 33.8% | mortality at 50 ppm [4, 10]: 64.4% | mortality at 50 ppm [4, 11]: 30% | mortality at 50 ppm [4, 12]: 51.2% | mortality at 50 ppm [4, 13]: 80% | mortality at 50 ppm [4, 14]: 96.2% | mortality at 50 ppm [4, 15]: 64.4% | mortality at 50 ppm [4, 16]: 30% | mortality at 50 ppm [4, 17]: 51.2% | mortality at 50 ppm [4, 18]: 80% | mortality at 50 ppm [4, 19]: 96.2% | mortality at 50 ppm [4, 20]: 73.4% | mortality at 50 ppm [4, 21]: 33.8% | mortality at 50 ppm [4, 22]: 60% | mortality at 50 ppm [4, 23]: 100% | mortality at 50 ppm [4, 24]: 100% | mortality at 50 ppm [4, 25]: 73.4% | mortality at 50 ppm [4, 26]: 72.5% | mortality at 50 ppm [4, 27]: 71.2% | mortality at 50 ppm [4, 28]: 100% | mortality at 50 ppm [4, 29]: 100% | mortality at 50 ppm [4, 30]: 90.9% | mortality at 50 ppm [4, 31]: 76.2% | mortality at 50 ppm [4, 32]: 87.5% | mortality at 50 ppm [4, 33]: 100% | mortality at 50 ppm [4, 34]: 100% | mortality at 50 ppm [4, 35]: 98.4% | mortality at 50 ppm [4, 36]: 98.8% | mortality at 50 ppm [4, 37]: 95% | mortality at 50 ppm [4, 38]: 100% | mortality at 50 ppm [4, 39]: 100% | mortality at 50 ppm [4, 40]: 100% | mortality at 50 ppm [4, 41]: 100% | mortality at 50 ppm [4, 42]: 100% | mortality at 50 ppm [4, 43]: 100% | mortality at 50 ppm [4, 44]: 100% | Mean % mortality of donors and recipients ([4]; by treatment (all ratios), 4 h): 27.18 a %
